# Data from patent US11684675B2, “Dimeric collagen hybridizing peptides and methods of using” (University of Utah Research Foundation, priority 2015, dated 2023).
# Non-standard residues stand in square brackets, D forms with d. No end group written: not given here. Hyp = O=C(O)[C@@H]1C[C@@H](O)CN1; CF = carboxyfluorescein label
# Columns and labels:
# [1] = Triple helix melting point (Tm) by circular dichroism at 225 nm; assay type: physicochemical; conditions: triple helix melting
# Experimental: FIGS. 5A, 5B, 5C, and 5D show the thermal denaturation of fully assembled CHPs and subsequent cooling to initial temperature. Samples were heated at 1° C./min from their initial temperature final temperature of 90° C. Sample was then cooled at 1° C./min to the starting temperature. (A) Thermal denaturation and partial reassembly of CHP CF-6d (150 μM) monitored at 225 nm. Sample was measured from 4° C. to 90° C. (B) Thermal denaturation and partial reassembly of CHP […] (75 μM, corresponding to 150 μM strand concentration) monitored at 225 nm. Sample was measured from 4° C. to 90° C. (C) Thermal denaturation and partial reassembly of CHP CF-9 (150 μM) monitored at 225 nm. Sample was measured from 10° C. to 90° C. (D) Thermal denaturation and partial reassembly of CHP CF-9d (75 μM, corresponding to 150 μM strand concentration) monitored at 225 nm. Sample was measured from 10° C. to 90° C.
# FIGS. 11A and 11B show the First Derivative of mean residue ellipticity (MRE) at 225 nm in CD. […] There is no significant change in melting point between the monomeric and dimeric forms of the same peptide.
# (§1) Circular Dichroism: Circular Dichroism (CD) was measured for all peptides at 225 nm. Melting curves were taken on peptides between 10 and 80° C. at a heating rate of 0.5° C./min, with pauses at each 1° C. Refolding experiments were performed after peptide solutions were incubated at 4° C. for at least 12 hours. Concentrations were normalized to strand concentration.
# [2] = tested on: crosslinked gelatin films; assay: Binding of CF-labelled CHPs to crosslinked gelatin films at 37° C. with and without preheating; set-up: species or system porcine; conditions: for binding to gelatin wells at 37° C. without preheating: 20 μM, 37° C. overnight, PBS wash 20 h, FIG. 6C
# Experimental: FIGS. 3A and 3B show the affinity of CHPs to gelatin films as monitored by fluorescence of conjugated CF fluorophore (492 ex, 533 em). (A) Fluorescence of CHPs bound to crosslinked gelatin after incubation at 37° C. overnight with no workup. (B) Fluorescence of CHPs remaining in crosslinked gelatin after incubation at 37° C. overnight without preheating, followed by washing with 1×PBS at 37° C. (20 h).
# (§2) (A) Fraction of peptide remaining in a crosslinked gelatin film after 17 h at 25° C. (10 total washes). Values are normalized to fluorescence remaining in wells after 6 washes at 4° C. (>95% removal of CHPs 9r, 6r, and 5r). All washes performed in 1×PBS. (B) CHPs (15 μM) premixed into 10% porcine gelatin and preheated to 80° C. (10 min) before being added to a 96 well plate. Excess CHP-gelatin mixture was removed, then the premix was incubated at 4° C. for 2 hours. Wells were washed at 4° C., 5 times (>95% removal of CHPs 9r, 6r, and 5r). Wells were then washed for 2 hours (6 washes total) at 25° C. to monitor CHP remaining in the well. (C) Fluorescence of CHPs remaining in crosslinked gelatin after incubation at 37° C. overnight without preheating, followed by washing with 1×PBS at 37° C. (20 h). (D) Fluorescence of CHPs remaining in crosslinked gelatin after incubation at 37° C. overnight (80° C. preheating, 10 min), followed by washing with 1×PBS at 37° C. (20 h).
# Dimeric CHPs were assessed for their ability to bind to collagen strands in crosslinked gelatin films. CHP solutions (20 μM in PBS) were added directly to the crosslinked gelatin films. For heated experiments, CHPs were preheated to 80° C. for 10 minutes before addition. Peptides were allowed to fully equilibrate with the gel at 37° C. overnight before being exposed to repeated washes (4×, PBS) at 37° C. to fully remove any non-specifically bound peptide and to determine binding level at body temperature. To measure retention, peptides were bound as previously described, but were subsequently washed with PBS 37° C. (5×1 h, 1×12 h) to measure retention within the gelatin films. […] Additionally, after a period of 20 hours, higher level of the dimeric CHP remained in the gelatin compared to the monomeric CHP.
# A major limitation of the use of CHP in vivo, is the requirement of the triple helix to be fully disassembled before being injected. […] For this test, peptide solutions were allowed to warm to room temperature before being added (50 μL, 20 μM) to previously prepared crosslinked gelatin films. Solutions were then incubated at 37° C. overnight before removing the solution. Wells were washed at 37° C. with PBS (20 h) to determine binding. Preheated samples were prepared and incubated in the same way, but with preheating (80° C., 10 min) before being added to the crosslinked gelatin wells.
# [3] = tested on: crosslinked gelatin films; assay: Retention of CF-labelled CHPs in crosslinked gelatin films (bound at 4° C., washed at 25° C./r.t.); assay type: binding, porcine; conditions: for retention / affinity in gelatin films: 20 μM, preheated 80° C., bound at 4° C., washed at r.t. with PBS, FIG. 6A; for retention in crosslinked gelatin films: Example 3 retention studies
# Experimental: as §2
# Binding to Gelatin films. Peptide solutions (20 μM in PBS) were preheated to 80° C. for 10 minutes before being added directly to the crosslinked gelatin films. Peptides were allowed to fully equilibrate with the gel at 4° C. overnight before being exposed to repeated washes (4×30 min) at 4° to fully remove any non-specifically bound peptide. Gelatin wells were then washed at r.t. with PBS (5×1 h, lx 12 h) to measure retention within the gelatin films. […] To eliminate the possibility of these peptides merely becoming physically entrapped within the gelatin after forming triple helix or forming triple helix before binding, binding affinity was verified by producing a premix of the CHPs and Gelatin to eliminated diffusion-limited binding before washing the wells in a similar manner.
# Fluorescence Binding: CHP binding to gelatin was monitored by conjugating a fluorescent Carboxyfluorescein (CF) molecule to the N-terminus of each peptide via standard SPPS. Solutions of the fluorescent peptides were heated to 80° C. for 5 min before injecting 50 μL onto a pre-prepared EDC-crosslinked thin gelatin film in a 96 well plate. Peptides incubated overnight at 4° C., then washed with repeated rounds of 4° C. 1×PBS followed by 25° C. 1×PBS.
# [4] = CD refolding (triple helix assembly) at 10° C. monitored at 225 nm; assay type: physicochemical; conditions: 10° C., FIG. 12A
# Experimental: Conversion was assumed to be at 100% after 96 h incubation at 4° C., and max trimer concentration was measured via CD ellipticity at 10° C. Samples were preheated to 80° C. in the sample cuvette for 10 min before being transferred directly to the sample holder held at a constant 10° C. Sample measurement began immediately. Initial time point for analysis was determined by measuring time for a blank (lx PBS) to thermally equilibrate in these conditions.
# For all peptides, conversion was assumed to be at 100% after 96 h incubation at 4° C., and max trimer concentration was measured via CD ellipticity at 10° C. Samples were preheated to 80° C. in the sample cuvette for 10 min before being transferred directly to the sample holder held at a constant 10° C. Sample measurement began immediately. Initial time point for analysis was determined by measuring time for a blank (1×PBS) to thermally equilibrate in these conditions. This was set as the zero point for all peptides, as the large jump in CD due to temperature makes the initial jump irresolvable. (A) Rate of assembly of CHP 9 (60, 30, and 15 μM), over 2 h, monitored at 225 nm. (B) Rate of assembly of CHP 9d (30, 15, and 7.5 μM, corresponding to same CHP strand concentration from panel A), over 2 h, monitored at 225 nm. (C) Rate of assembly of CHP 6 (150 and 75 μM), over 2 h, monitored at 225 nm.
# FIGS. 12A and 12B show CD refolding at 10° C. of CMPs monitored at 225 nm. CMPs were heated to 80° C. for 5 minutes before being placed into the CD and initial 2 min of monitored data was removed to eliminate thermal transition. Signal was normalized to that of a fully folded peptide.
# as §1
# porcine gelatin = assay: SPR gelatin capture by immobilized biotinylated CHPs; assay type: binding; conditions: gelatin 25 μg/mL
# Experimental: FIGS. 7A and 7B show SPR data for porcine gelatin capture by immobilized CHPs. […] Gelatin was applied to the sensor surface during the association phase, followed by elution with blank during dissociation phase. Association occurred for 981 s, followed by dissociation for 1800 s. Values were normalized to a 100% biotin lane, and were adjusted to the mass of peptide immobilized in each well. (A) Preheated (80° C., 10 min), quenched (0° C., 30 s) gelatin (25 μg/mL) was applied to the sensor at an ambient temperature of 37° C. (B) Preheated (80° C., 10 min), quenched (0° C., 30 s) gelatin (25 μg/mL) was applied to the sensor at an ambient temperature of 15° C.
# Surface Plasmon Resonance (SPR). […] However, there were major differences observed during the association phase. At 37° C., there was a much higher amount of gelatin adsorbed to all the peptides tested on the surface when compared to 15° C. […] At 15° C., gelatin adsorbed to the surface at a much slower rate. […] However, this lower adsorption rate can be due to a reduced diffusion rate near the surface or a more condensed gelatin structure at this lower temperature.
# Dimeric CHP is able to hybridize effectively with denatured collagens with faster folding kinetics than current, monomeric CHPs. Surface plasmon resonance (SPR) was used to measure the ability of the CHPs to trap denatured collagen from solution.
substance,measurement,setting,value
"(GPO)5 [compound 5, reference compound]",Tm (° C.),[1]; Table 2,27 (SEQ ID NO: 67) ° C.
same,binding to gelatin wells at 37° C. without preheating,[2],do not have a strong enough affinity to the gelatin to bind effectively at physiologic temperature
(GPO)6-G3K^Biotin [b-6],Tm (° C.),[1]; Table 2,36 (SEQ ID NO: 64) ° C.
(GPO)9-G3K^Biotin [b-9],Tm (° C.),[1]; Table 2,68 (SEQ ID NO: 61) ° C.
"CF-G3-(GPO5) (GGGGPPGPPGPPGPPGPP; carboxyfluorescein label; collagen hybridizing peptide; (6)..(6) Proline is hydroxyproline; (9)..(9) Proline is hydroxyproline; (12)..(12) Proline is hydroxyproline; (15)..(15) Proline is hydroxyproline; (18)..(18) Proline is hydroxyproline) [CF-5, reference compound]",Tm (° C.),[1]; Table 2,28 (SEQ ID NO: 69) ° C.
same,retention / affinity in gelatin films,[3],almost entirely washed out of the gelatin films
CF-G3-(GPO6) (GGGGPPGPPGPPGPPGPPGPP; carboxyfluorescein label; collagen hybridizing peptide; (6)..(6) Proline is hydroxyproline; (9)..(9) Proline is hydroxyproline; (12)..(12) Proline is hydroxyproline; (15)..(15) Proline is hydroxyproline; (18)..(18) Proline is hydroxyproline; (21)..(21) Proline is hydroxyproline) [CF-6],Tm (° C.),[1]; Table 1,37 (SEQ ID NO: 60) ° C.
same,Tm (° C.),[1]; Table 2,37 (SEQ ID NO: 60) ° C.
same,retention / affinity in gelatin films,[3],almost entirely washed out of the gelatin films
CF-G3-(GPO9) [CF-9],Tm (° C.),[1]; Table 1,69 (SEQ ID NO: 57) ° C.
same,Tm (° C.),[1]; Table 2,69 (SEQ ID NO: 57) ° C.
same,retention in crosslinked gelatin films,[3],58%
[(CF-Ahx-GPO)9G3)2KG [CF-9d],Tm (° C.),[1]; Table 1,73 (SEQ ID NO: 55 °C
same,Tm (° C.),[1]; Table 2,73 (SEQ ID NO: 55 w/label) ° C.
"[(CF-G3GPO)5G3)2KG ({CF}-GGGGP[Hyp]GP[Hyp]GP[Hyp]GP[Hyp]GP[Hyp]GGGKGGG[Hyp]PG[Hyp]PG[Hyp]PG[Hyp]PG[Hyp]PGGGG; not fully specified (C-terminus); also: lysine-branched dimer: K22 is the branch point, second arm (23-43) is written reversed, its N-terminus at position 43 carries CF) [CF-5d]",Tm (° C.),[1]; Table 2,28 (SEQ ID NO: 70) ° C.
same,retention / affinity in gelatin films,[3],higher affinity to the gelatin films than CF-6
[(CF-G3GPO)6G3)2KG [CF-6d],Tm (° C.),[1]; Table 1,50 (SEQ ID NO: 63) ° C.
same,Tm (° C.),[1]; Table 2,50 (SEQ ID NO: 63) ° C.
same,retention / affinity in gelatin films,[3],comparable affinity to that of the GPO9 monomer (CF-9) and GPO9 dimer (CF-9d)
same,retention in crosslinked gelatin films,[3],66%
same,more peptide remaining after 20 hours of wash,"[2]; 37° C., non-preheated, vs currently utilized CHP, FIG. 17",50%
same,higher initial binding to the gelatin substrate,"[2]; non-preheated, vs currently utilized CHP, FIG. 17",350%
"[(GPO)5G3)2KG (GP[Hyp]GP[Hyp]GP[Hyp]GP[Hyp]GP[Hyp]GGGKGGG[Hyp]PG[Hyp]PG[Hyp]PG[Hyp]PG[Hyp]PG; not fully specified (C-terminus); also: lysine-branched dimer: K19 is branch point carrying two arms and a third (C-terminal) Gly, residues 20-37 are the second arm written in reverse order) [5d]",Tm (° C.),[1]; Table 2,27 (SEQ ID NO: 68) ° C.
[(GPO)6G3)2KG3K^Biotin [b-6d],Tm (° C.),[1]; Table 2,37 (SEQ ID NO: 65) ° C.
[(GPO)9G3)2KG3K^Biotin [b-9d],Tm (° C.),[1]; Table 2,68 (SEQ ID NO: 62) ° C.
[(GPO)9G3)2KG [9d],Tm (° C.),[1]; Table 1,69 (SEQ ID NO: 55) ° C.
same,Tm (° C.),[1]; Table 2,69 (SEQ ID NO: 55) ° C.
same,increase in refolding rate compared to monomeric GPO9,[4],two-fold
same,binding to gelatin wells at 37° C. without preheating,[2],bind more significantly than the GPO9 monomer without preheating
same,ability to bind gelatin,porcine gelatin; 15° C.,maintained its greater ability to bind gelatin
same,ability to bind gelatin,porcine gelatin; 37° C.,higher ability to bind gelatin than that of an equivalent number of strands in their monomeric counterparts
